Measured values reported in paper PMC10824102, “Identification of small molecule inhibitors of G3BP-driven stress granule formation” (The Journal of Cell Biology, 2024).

Assays:
[1] = tested on: eIF3η and PABPC1 puncta in U2OS cells; experiment: Immunofluorescence of additional stress granule markers after preincubation; format: cell-based; conditions: 50 μM pretreatment, 250 μM NaAsO2 for 30 min
Method: U2OS cells or U2OS cells stably expressing G3BP1-GFP were seeded in four-well Lab-Tek II Chambered Coverglass (1055360; Thermo Fisher Scientific). For preincubation experiments, cells were treated with 50 μM G3I compound for 20 min or 24 h, followed by 250 μM NaAsO2 and 50 μM G3I compound for 30 min. For posttreatment, cells were treated with 250 μM NaAsO2 for 30 min, followed by treatment with 250 μM NaAsO2 and 50 μM G3I compound for 5 min. Cells were then washed twice with PBS and fixed with 4% PFA in PBS for 10 min. Cells were then washed three times with PBS (5 min between each wash), permeabilized with 0.5% Triton X-100 in PBS for 10 min, and washed twice with PBS. Next, cells were blocked for 1 h with 3% BSA in PBS at room temperature, followed by incubation with primary antibodies diluted in 3% BSA overnight at 4°C. Cells were then washed three times with PBS (5 min between each wash) and incubated with secondary antibodies and Hoechst diluted in 3% BSA at room temperature for 1 h. Cells were then washed three times with PBS (5 min between each wash) and imaged. […]

[2] = molecular target: T1, interaction between G3BP1 and endogenous caprin 1 (Homo sapiens, UniProt Q13283); experiment: Coimmunoprecipitation of G3BP1-GFP with endogenous caprin 1 in U2OS lysates; format: biochemical; conditions: increasing concentrations added to U2OS G3BP1-GFP lysates, GFP IP
T1 construct: expressed in transfected cells; host or cells: U2OS cells stably expressing G3BP1-GFP (lysate)
Method: U2OS cells expressing G3BP1-GFP were grown in 3-cm dishes to 100% confluency, at which point cells were collected and pelleted at 400 × g for 5 min. Pellets were either stored at −80°C or processed the same day by lysing with 200 μl in vivo lysis buffer (150 mM NaCl, 50 mM Tris [pH 7.5], 1 mM EDTA, 0.5% NP-40, and 10% glycerol, supplemented with 1 protease inhibitor tablet [11836170001; Roche]). Lysates were centrifuged at 13,000 × g at 4°C for 15 min, after which supernatants were transferred to a new tube and diluted with 200 μl lysis buffer containing indicated concentrations of G3I compounds. The mixture was then incubated with GFP-Trap (ChromoTek GFP-Trap Magnetic Agarose; Proteintech; gtma) for 2 h at 4°C. Beads were washed three times with lysis buffer, then incubated with 1× SDS sample buffer supplemented with 10% 2-mercaptoethanol, and boiled for 5 min at 95°C. Lysates were subjected to SDS-PAGE and then immunoblotted.
Samples were separated by SDS-PAGE and transferred to membranes. […] Membranes were visualized and quantified with an Odyssey Fc imaging system (LI-COR) and normalized to the amount of G3BP1 immunoprecipitated.

T1 sequence (Q13283 whole entry): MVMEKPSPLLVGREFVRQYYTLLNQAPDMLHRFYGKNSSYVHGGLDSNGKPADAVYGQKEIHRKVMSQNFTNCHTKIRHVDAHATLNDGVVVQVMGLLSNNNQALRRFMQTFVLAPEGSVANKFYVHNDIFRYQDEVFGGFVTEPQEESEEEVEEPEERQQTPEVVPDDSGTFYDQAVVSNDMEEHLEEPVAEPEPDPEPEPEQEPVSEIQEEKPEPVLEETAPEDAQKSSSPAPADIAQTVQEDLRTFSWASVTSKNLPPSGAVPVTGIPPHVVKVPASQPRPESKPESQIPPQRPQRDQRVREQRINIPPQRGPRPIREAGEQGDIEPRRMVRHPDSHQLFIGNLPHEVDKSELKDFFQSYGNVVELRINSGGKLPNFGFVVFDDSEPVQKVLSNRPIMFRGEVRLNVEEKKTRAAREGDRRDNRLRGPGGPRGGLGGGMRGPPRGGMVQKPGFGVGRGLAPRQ

| SMILES | eIF3η and PABPC1 puncta [1] | interaction between G3BP1 and endogenous caprin 1 [2] |
| --- | --- | --- |
| COCCC(NC(=O)C(C)NC(=O)C(NC(=O)C(NC(=O)C(F)CC(C)(C)C)C(C)(C)O)C(C)c1ccccc1)C(=O)N(C)Cc1ccccc1 (stereo not shown) [G3Ia] | reduced eIF3η and PABPC1 puncta | – |
| CC(NC(=O)C(NC(=O)C(NC(=O)CCC(C)(C)C)C(C)(C)O)C(C)c1ccccc1)C(=O)N1CCCC1c1ccccc1 (stereo not shown) [G3Ib] | reduced eIF3η and PABPC1 puncta | dose-dependent reduction |
| CC(NC(=O)C(NC(=O)C(NC(=O)CCC(C)(C)C)C(C)(C)O)C(C)c1ccccc1)C(=O)N1CCCC1c1ccccc1 (stereo not shown) [G3Ib′] | – | no such effect |
